Test results from paper PMC11085208, “Cyclometalated and NNN Terpyridine Ruthenium Photocatalysts and Their Cytotoxic Activity” (Molecules, 2024).
“And” between values parts separate entries of the source, which are not always exact repeats. Equal entries are not always repeated. “Also recorded” adds a separate entry of the source.

Columns and labels:
SW1736 cells = assay: MTT cell viability assay, SW1736 cells; format: cell-based, human; settings: for ED50 SW1736: MTT test, 72 h, mean ± SD
Source text: (§1) Anaplastic thyroid cancer (ATC), while rare, remains one of the deadliest cancers known, showing a median overall survival of 3 months. […] Several therapeutic strategies were thus developed, ranging from more classical methods such as inhibition of cyclin-dependent kinases, to more innovative ones including the use of epigenetic drugs. However, so far, all efforts made in the search for new molecules that can counteract the very high mortality of ATC have often been thwarted by the relative ease with which cancer cells are able to gain drug resistance. For these reasons, the development of new molecules that can increase ATC treatment options is crucial in an effort to extend the life expectancy. A preliminary assessment of the effects of the compounds under consideration involved studying their effectiveness in terms of cell viability. In order to evaluate the antitumor efficacy of ruthenium compounds, they were administered to ATC cells (SW1736 and 8505C) and to a non-tumorigenic thyroid cell line (Nthy-ori 3-1) at increasing doses, and an MTT assay was performed. Once the effects in terms of cell viability were observed, the effective dose 50 (ED50) was calculated by interpolation of the scatter plot curve (dose/effect). The two lines of ATC were similarly sensitive to each of the compounds tested, with the ED50 spanning from 0.3 to 8 µM, calculated at a 72 h time point (Table 2).
(§2) In this study, we used two different human anaplastic thyroid cancer cell lines (SW1736 and 8505C) and a non-tumorigenic thyroid cell line (Nthy-ori 3-1) that were grown as previously described. All cell lines have been validated by short tandem repeat and tested for being mycoplasma-free. Cells were grown in RPMI 1640 medium (EuroClone, Milan, Italy) supplemented with 10% fetal bovine serum (Gibco Invitrogen, Milan, Italy), 2 mM L-glutamine (EuroClone, Milan, Italy), and […] gentamicin (Gibco Invitrogen, Milan, Italy). Cells were maintained in a humidified incubator (5% CO2, 37 °C).
(§3) In order to test cell viability, we applied the methylthiazolyldiphenyl-tetrazolium bromide (MTT) assay as previously described. SW1736, 8505C and Nthy-ori 3-1cells (3000 cells/well) were plated onto 96-well plates in 200 μL medium/well and were allowed to attach to the plate for 24 h (t0). Plates were then treated either with DMSO or with each of the different compounds at different concentrations for 72 h. Then, 4 mg/mL MTT (Merck, Darmstadt, Germany) was added to the cell medium, and cells were cultivated for another 4 h in the incubator. The supernatant was removed, 100 μL/well of DMSO (Merck, Darmstadt, Germany) was added, and the absorbance at 570 nm was measured. All experiments were run sixfold and cell viability was expressed as a fold change compared to control. ED50 was calculated by interpolation of the scatter plot obtained by crossing each dose with its own observed effect.

8505C cells = assay: MTT cell viability assay, 8505C cells; format: cell-based, human; settings: MTT test, 72 h, mean ± SD
Source text: as §1, §2, §3

Nthy-ori 3-1 cells = assay: MTT cell viability assay, non-tumorigenic Nthy-ori 3-1 cells; format: cell-based, human; settings: MTT test, 72 h, nontumorigenic thyroid cells, mean ± SD
Source text: as §1, §2, §3

[1] = tested on: anaplastic thyroid cancer 8505C and SW1736 cell lines; assay: MTT cell viability assay, ATC cell lines taken together; format: cell-based; settings: 72 h
Source text: as §1
In this study, we used two different human anaplastic thyroid cancer cell lines (SW1736 and 8505C) and a non-tumorigenic thyroid cell line (Nthy-ori 3-1) that were grown as previously described. […]
In order to test cell viability, we applied the methylthiazolyldiphenyl-tetrazolium bromide (MTT) assay as previously described. […] The supernatant was removed, 100 μL/well of DMSO (Merck, Darmstadt, Germany) was added, and the absorbance at 570 nm was measured. All experiments were run sixfold and cell viability was expressed as a fold change compared to control. ED50 was calculated by interpolation of the scatter plot obtained by crossing each dose with its own observed effect.

Compound	cytotoxicity (ED50) compared to the enantiomer 6 (SW1736 cells; ED50 0.31 vs 1.39 µM)	ED50 SW1736 (SW1736 cells)	ED50 8505C (8505C cells) [µM]	ED50 Nthy-ori 3-1 (Nthy-ori 3-1 cells) [µM]	cytotoxicity (in words) [1]
[Ru(η^1-OAc)(NNN-tpy)((S,S)-Skewphos)]OAc [Complex 7]	four times lower; also recorded: four times higher	0.31 µM and 0.31 ± 0.11 µM	0.75 ± 0.09	4.85 ± 0.17	–
[Ru(η^1-OAc)(NNN-tpy)((R,R)-Skewphos)]OAc [Complex 6]	–	1.39 µM and 1.39 ± 0.14 µM	1.88 ± 0.21	4.38 ± 0.13	–
[RuCl(NNN-tpy)((R,R)-Skewphos)]Cl [reference compound]	–	3.36 ± 0.42 µM	4.57 ± 0.53	6.91 ± 0.62	–
[Ru(η^2-OAc)(NC-tpy)(dppb)] [Complex 1]	–	8.53 ± 0.98 µM	7.73 ± 1.02	10.59 ± 1.28	moderate cytotoxicity
[Ru(η^2-OAc)(NC-tpy)((S,S)-Skewphos)] [Complex 5]	–	2.11 ± 011 µM	2.06 ± 0.26	4.18 ± 0.09	moderate cytotoxicity
[RuCl(NNN-tpy)((S,S)-Skewphos)]PF6 [reference compound]	–	2.63 µM and 2.63 ± 0.14 µM	2.25 ± 0.17	7.21 ± 0.74	–
[Ru(η^2-OAc)(NC-tpy)((R,R)-Skewphos)] [Complex 4]	–	2.18 ± 0.16 µM	1.95 ± 0.23	3.88 ± 0.31	moderate cytotoxicity
N.N.[Cl][Pt][Cl] [Cisplatin, reference compound]	–	6.40 ± 1.54 µM	5.20 ± 1.82	11.28 ± 0.96	–
